Experimental data: PMC4949387 (Brain, 2015)

How the values were obtained:
[1] = test system: amyloid-β plaques; assay: 18F-florbetapir PET scan in Alzheimer's disease patients; type: in vivo, human
[2] = target: amyloid-β; details: ref Choi et al., 2009; cited from earlier work
[3] = test system: amyloid-β; details: ref Joshi et al., 2012, cited from earlier work
[4] = test system: amyloid-β plaque; details: preliminary clinical data; ref Kung et al., 2012; cited from earlier work
[5] = Alzheimer's disease (n = 3), PET 50–65 min post-injection

Row | SMILES | SUVR Anterior cingulate [1, 5] | SUVR Cortical average [1, 5] | SUVR Frontal cortex [1, 5] | SUVR Occipital cortex [1, 5] | SUVR Parietal cortex [1, 5] | SUVR Posterior cingulate [1, 5] | SUVR Subcortical white matter [1, 5] | SUVR Temporal cortex [1, 5] | 18F-florbetapir scan, visual interpretation ([1]; subject AD01) | 18F-florbetapir scan, visual interpretation ([1]; subject AD02) | 18F-florbetapir scan, visual interpretation ([1]; subject AD03) | Kd [2] [nM] | Mean cortical-to-cerebellar SUVR ([3]; Alzheimer's disease patients) | Greater SUVR in Alzheimer's disease patients relative to healthy controls [3] [%] | Target-to-background ratio for amyloid-β plaque labelling [4]
1 | CNc1ccc(/C=C/c2ccc(OCCOCCOCCF)nc2)cc1 [18F-florbetapir] | 1.28 ± 0.05 | 1.31 ± 0.10 | 1.29 ± 0.13 | 1.12 ± 0.25 | 1.37 ± 0.21 | 1.48 ± 0.11 | 1.62 ± 0.16 | 1.32 ± 0.15 | Positive | Positive | Positive | 3.7 | 1.42 ± 0.24 | 42 | 
2 | CN(C)c1ccc(-c2cn3cc([123I])ccc3n2)cc1 [123I-IMPY, ^123 I-2-(4′-dimethylaminophenyl)-6-iodo-imidazo[1,2-a]pyridine] |  |  |  |  |  |  |  |  |  |  |  |  |  |  | not as robust as that of PET tracers
